Results reported in a compilation of properties of binary mixtures (doi:10.1016/j.molliq.2010.03.018).

Assay: xn = mol fraction of the nth substance listed
Details: 101 kPa

CCOCC(C)O (stereo not drawn) + CCCC[n+]1ccn(C)c1.F[P-](F)(F)(F)(F)F
speed of sound [m/s]
Details	x1 = 0.0532	x1 = 0.172	x1 = 0.255	x1 = 0.3298	x1 = 0.5031	x1 = 0.6555	x1 = 0.8423	x1 = 0.9	x1 = 0.9474
288.15 K	1462	1449.6	1437.8	–	1390.7	–	–	–	–
298.15 K	1437	1424.7	1412.6	1399.7	1363.1	1325.5	–	1260.4	1247.7
308.15 K	1414.1	1400.1	–	1374.8	1336.2	1296	1242.1	1225.4	–

COCC(C)O (stereo not drawn) + CCCC[n+]1ccn(C)c1.F[P-](F)(F)(F)(F)F
speed of sound [m/s]
Details	x1 = 0.0426	x1 = 0.126	x1 = 0.2396	x1 = 0.4116	x1 = 0.5071	x1 = 0.6847	x1 = 0.8536	x1 = 0.9447
288.15 K	1464.5	1458.3	1449.3	–	1420.4	1390.4	–	1322.3
298.15 K	1439.7	1433.7	1424.6	–	1393.6	1360.9	1316.9	1286.9
308.15 K	1416.2	–	1400.6	1381.5	1367.3	1331.8	–	1251.5

COCCOCCO + CCCC[n+]1ccn(C)c1.F[P-](F)(F)(F)(F)F
speed of sound [m/s]
Details	x1 = 0.1008	x1 = 0.2217	x1 = 0.3398	x1 = 0.4582	x1 = 0.519	x1 = 0.6876	x1 = 0.8005	x1 = 0.8758	x1 = 0.9136
288.15 K	–	1469	1473	1478.1	1480.6	1484.3	–	–	1474.1
298.15 K	1443.7	–	1448	1452.2	–	1455.5	1451.5	1445.7	1441.7
308.15 K	1420.3	1420.8	1423.5	1426.6	1427.8	–	–	1414.2	1409.4
